Measured values from ChEMBL document CHEMBL1150135, “Pharacine, a natural p-cyclophane and other indole derivatives from Cytophaga sp. strain AM13.1” (J Nat Prod, 2002).
The source made the active and inactive calls.

Tests used:
Type in all cases: functional, organism-based
[1] = test system: Bacillus subtilis; experiment: Antimicrobial activity against Bacillus subtilis by agar diffusion method
[2] = test system: Escherichia coli; experiment: Antimicrobial activity against Escherichia coli by agar diffusion method
[3] = test system: Rhizomucor miehei; experiment: Antimicrobial activity against Mucor miehei by agar diffusion method
[4] = test system: Staphylococcus aureus; experiment: Antimicrobial activity against Staphylococcus aureus by agar diffusion method
[5] = test system: Candida albicans; experiment: Antimicrobial activity against Candida albicans by agar diffusion method
[6] = test system: Streptomyces viridochromogenes; experiment: Antimicrobial activity against Streptomyces viridochromogenes by agar diffusion method

Measured: Activity

CC(C)CC(=O)NCCc1c[nH]c2ccccc12
inactive: all assays above

NC(=O)Cc1ccc(O)cc1
inactive: all assays above

O=C1OCCCCOC(=O)c2ccc(cc2)C(=O)OCCCCOC(=O)c2ccc1cc2
inactive: all assays above

c1ccc2c(Cc3cnc(Cc4c[nH]c5ccccc45)cn3)c[nH]c2c1
inactive: all assays above
